# Laboratory results reported in US6034087A, “Nucleoside derivatives and process for preparing thereof” (priority 1994, dated 2000).
# Assays:
# [1] = test system: HBV; details: literature report; cited from earlier work
# [2] = test system: HBV; experiment: Anti-HBV effect in HepG2 2. 2. 15 cell line; assay type: cell-based, Hepatitis B Virus
# Protocol: (§1) Anti-HBV effect of 1-(5-hydroxymethyl-1,4-dioxan-2-yl)thymine, one of the desired product of the present invention prepared in Example 38, was tested in HepG2 2. 2. 15 cell line. The resultant Effective Concentration (Ec50, EC90), Cytotoxic Concentration (CC50) and Selectivity Index (SI) are shown in the Table below.
# [3] = Cytotoxic Concentration in HepG2 2. 2. 15 cell line; assay type: cell-based; details: human, hepg2 2.2.15 cells
# Protocol: as §1
SMILES,anti-HBV activity (in words) [1],other results
Nc1nc(=O)n(C2CCC(CO)O2)cc1F [2'3'-dideoxy-β-L-5-fluoro-cytidine],showing anti-HBV activity,–
"Nc1ccn([C@H]2CS[C@@H](CO)O2)c(=O)n1 [2',3'-dideoxy-3'-thiacytidine]",showing anti-HBV activity,–
"Nc1ccn(C2CCC(CO)O2)c(=O)n1 [2',3'-dideoxy-β-L-cytidine]",showing anti-HBV activity,–
"Nc1nc(=O)n([C@H]2CS[C@@H](CO)O2)cc1F [5-fluoro-2',3'-dideoxy-3'-thiacytidine]",showing anti-HBV activity,–
"Cc1cn(C2COC(CO)CO2)c(=O)[nH]c1=O (centres unmarked) [Compound of Ex.38, 1-(5-hydroxymethyl-1,4-dioxan-2-yl)thymine]",–,"SI (CC50/EC50) (Selectivity Index) ([2]; CC50/EC50): 188; EC50 ([2]; Hepatitis B virus, HepG2 2.2.15, read-out: EC50 (Effective Concentration)): 4.5 µg/mL; EC90 ([2]; Hepatitis B virus, HepG2 2.2.15, read-out: EC90 (Effective Concentration)): 15 µg/mL; CC50 [3]: 846 µg/mL"
